The values that follow come from PubChem BioAssay AID330 (DTP/NCI, 2004).

The test relates to P388 leukemia ip, CD2F1 mice, survival T/C. As to the kind of experiment: NCI In Vivo Anticancer Drug Screen. Data for tumor model P388 Leukemia (intraperitoneal) in CD2F1 (CDF1) mice. To be noted: endpoint: median survival time, higher = longer survival. In outline: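 Mice carrying the transplanted tumor received test compound or vehicle. Survival was recorded in each group, and the value is the treated-group measurement divided by that of the vehicle-treated control group.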

The mark [1] stands for this setting: dose: 60.0 mg/kg/injection, schedule: Q01DX005 (ip), vehicle: saline with Tween-80.
[2] abbreviates: dose: 120.0 mg/kg/injection, schedule: Q01DX005 (ip), vehicle: saline with Tween-80.
Where [3] appears, read: dose: 240.0 mg/kg/injection, schedule: Q01DX005 (ip), vehicle: saline with Tween-80.
Setting [4] is: dose: 25.0 mg/kg/injection, schedule: Q01DX009 (ip), vehicle: saline with Tween-80.
Where [5] appears, read: dose: 50.0 mg/kg/injection, schedule: Q01DX009 (ip), vehicle: saline with Tween-80.
The mark [6] stands for this setting: dose: 100.0 mg/kg/injection, schedule: Q01DX009 (ip), vehicle: saline with Tween-80.
[7] abbreviates: dose: 200.0 mg/kg/injection, schedule: Q01DX009 (ip), vehicle: saline with Tween-80.
The mark [8] stands for this setting: dose: 50.0 mg/kg/injection, schedule: Q01DX005 (ip), vehicle: saline with Tween-80.
Where [9] appears, read: dose: 100.0 mg/kg/injection, schedule: Q01DX005 (ip), vehicle: saline with Tween-80.
Where [10] appears, read: dose: 200.0 mg/kg/injection, schedule: Q01DX005 (ip), vehicle: saline with Tween-80.
Where [11] appears, read: dose: 60.0 mg/kg/injection, schedule: Q01DX005 (ip), vehicle: Klucel (hydroxypropylcellulose) (HPC).
The mark [12] stands for this setting: dose: 50.0 mg/kg/injection, schedule: Q01DX005 (ip), vehicle: Klucel (hydroxypropylcellulose) (HPC).
Setting [13] is: dose: 100.0 mg/kg/injection, schedule: Q01DX005 (ip), vehicle: Klucel (hydroxypropylcellulose) (HPC).

Several values for one entry are separate records, joined by “and”; a condition that tells them apart may be missing. Identical values can stand only once. Inconclusive results and toxic doses are left out.

As to `CCc1c(OC)c(C#N)c2n(C)c3cc(C)c(C)cc3n2c1=O`, the T/C is, setting by setting: under setting [1], 87 % of control; under setting [2], 90 % of control; under setting [3], 93 % of control.

Consider `O=C1OC(c2ccccc2)=N/C1=C\c1ccccc1`, for which the T/C runs as follows: under setting [4], 95 % of control; under setting [5], 100 % of control; under setting [6], 100 % of control; under setting [7], 95 % of control.

Consider `O=C1C(N2CC2)=C(N2CC2)C(=O)c2ncncc21`, for which the T/C was 105 % of control (dose: 2.5 mg/kg/injection, schedule: Q01DX005 (ip), vehicle: saline); 104 % of control and 113 % of control (dose: 5.0 mg/kg/injection, schedule: Q01DX005 (ip), vehicle: saline); 107 % of control (dose: 10.0 mg/kg/injection, schedule: Q01DX005 (ip), vehicle: saline).

As to `Cc1nn(CCO)c(C)c1N=[N+]([O-])c1c(C)nn(CCO)c1C`, the T/C is, setting by setting: (dose: 10.0 mg/kg/injection, schedule: Q01DX009 (ip), vehicle: suspension in saline) 114 % of control; (dose: 20.0 mg/kg/injection, schedule: Q01DX009 (ip), vehicle: suspension in saline) 120 % of control; (dose: 25.0 mg/kg/injection, schedule: Q04DX003 (ip), vehicle: Klucel (hydroxypropylcellulose) (HPC)) 111 % of control and 116 % of control; (dose: 30.0 mg/kg/injection, schedule: Q01DX009 (ip), vehicle: suspension in saline) 116 % of control; (dose: 50.0 mg/kg/injection, schedule: Q04DX003 (ip), vehicle: Klucel (hydroxypropylcellulose) (HPC)) 115 % of control and 122 % of control; (dose: 60.0 mg/kg/injection, schedule: Q01DX009 (ip), vehicle: suspension in saline) 120 % of control. For the same compound, the T/C (dose: 100.0 mg/kg/injection, schedule: Q04DX003 (ip), vehicle: Klucel (hydroxypropylcellulose) (HPC)) is 114 % of control and 96 % of control.

On to `O=C1OC(C2OC(=O)C(=O)C2C(=O)c2cccc([N+](=O)[O-])c2)C(C(=O)c2cccc([N+](=O)[O-])c2)C1=O` (configuration not stated), for which the T/C was 100 % of control under setting [1], 105 % of control under setting [2] and 100 % of control under setting [3].

Take `Cn1c(=O)ccc2ccccc21`: the T/C is, setting by setting: (dose: 25.0 mg/kg/injection, schedule: Q04DX002 (ip), vehicle: saline with Tween-80) 103 % of control; (dose: 50.0 mg/kg/injection, schedule: Q04DX002 (ip), vehicle: saline with Tween-80) 100 % of control; (dose: 50.0 mg/kg/injection, schedule: Q04DX003 (ip), vehicle: saline) 108 % of control; (dose: 100.0 mg/kg/injection, schedule: Q04DX002 (ip), vehicle: saline with Tween-80) 108 % of control; (dose: 100.0 mg/kg/injection, schedule: Q04DX003 (ip), vehicle: saline) 104 % of control and 113 % of control.

`CNc1ccccc1C(=O)N1CCc2c([nH]c3ccccc23)C1=O`: the T/C reads like this: under setting [4], 98 % of control; under setting [6], 93 % of control.

For `COc1cccc(Oc2cccc[n+]2CC(C)=O)c1`, the T/C (dose: 25.0 mg/kg/injection, schedule: Q01DX005 (ip), vehicle: saline) was 98 % of control and the T/C (dose: 50.0 mg/kg/injection, schedule: Q01DX005 (ip), vehicle: saline) is 98 % of control.

For `CC1(C)CN(Cc2ccccc2)C2OC1N(Cc1ccccc1)CC2(C)C`, the T/C (dose: 50.0 mg/kg/injection, schedule: Q01DX009 (ip), vehicle: Klucel (hydroxypropylcellulose) (HPC)) was 102 % of control; the T/C (dose: 100.0 mg/kg/injection, schedule: Q01DX009 (ip), vehicle: Klucel (hydroxypropylcellulose) (HPC)) is 99 % of control; the T/C (dose: 200.0 mg/kg/injection, schedule: Q01DX009 (ip), vehicle: Klucel (hydroxypropylcellulose) (HPC)) is 96 % of control.

`CC1(C)OC(=O)C(=Cc2ccc([N+](=O)[O-])s2)C(=O)O1`: the T/C is, setting by setting: under setting [5], 103 % of control and 110 % of control; under setting [6], 109 % of control and 122 % of control; under setting [7], 111 % of control and 124 % of control.

On to `CN(C)c1nc(N(C)C)nc(N(C)C=O)n1`, for which the T/C was 99 % of control (dose: 100.0 mg/kg/injection, schedule: Q01DX001 (ip), vehicle: saline); 97 % of control (dose: 200.0 mg/kg/injection, schedule: Q01DX001 (ip), vehicle: saline); 100 % of control (dose: 400.0 mg/kg/injection, schedule: Q01DX001 (ip), vehicle: saline).

Take `COc1cccc2c1C(=O)c1c(O)c3c(c(O)c1C2=O)C[C@@](O)(C(C)=O)C[C@@H]3OC1CC(O)C(O)C(C)O1` (some centres not stated): the T/C (dose: 12.5 mg/kg/injection, schedule: Q04DX003 (ip), vehicle: water) was 123 % of control; the T/C (dose: 100.0 mg/kg/injection, schedule: Q04DX003 (ip), vehicle: water) is 161 % of control; the T/C (dose: 200.0 mg/kg/injection, schedule: Q04DX003 (ip), vehicle: water) is 192 % of control.

Regarding `Clc1cc2c(cc1CO/N=C\c1ccc3c(c1)OCO3)OCO2`, the T/C is, setting by setting: (dose: 50.0 mg/kg/injection, schedule: Q04DX003 (ip), vehicle: saline sonified) 90 % of control; (dose: 100.0 mg/kg/injection, schedule: Q04DX003 (ip), vehicle: saline sonified) 95 % of control; (dose: 200.0 mg/kg/injection, schedule: Q04DX003 (ip), vehicle: saline sonified) 90 % of control.

For `COc1ccc(CN2CC(C)(NC(=O)OCc3ccccc3)C2=O)c(OC)c1` (configuration not stated), the T/C by setting is: under setting [8], 106 % of control; under setting [9], 98 % of control; under setting [10], 103 % of control.

With `CSc1nc(N)c(NS(=O)(=O)c2ccc([N+](=O)[O-])cc2)c(=O)[nH]1`, the T/C is 99 % of control (dose: 15.0 mg/kg/injection, schedule: Q01DX005 (ip), vehicle: Klucel (hydroxypropylcellulose) (HPC)); 87 % of control (dose: 30.0 mg/kg/injection, schedule: Q01DX005 (ip), vehicle: Klucel (hydroxypropylcellulose) (HPC)); 91 % of control and 93 % of control under setting [11].

In the case of `COc1ccc(/C=C/c2nc(Nc3ccc(OC)cc3)c3ccccc3n2)cc1`, the T/C is 98 % of control (dose: 50.0 mg/kg/injection, schedule: Q01DX009 (ip), vehicle: acetone); 91 % of control (dose: 100.0 mg/kg/injection, schedule: Q01DX009 (ip), vehicle: acetone); 99 % of control (dose: 200.0 mg/kg/injection, schedule: Q01DX009 (ip), vehicle: acetone).

For the compound `CC1(C)OC(=O)C(=Cc2ccc(-c3ccccc3[N+](=O)[O-])o2)C(=O)O1`, the T/C runs as follows: under setting [12], 92 % of control; under setting [13], 105 % of control; (dose: 200.0 mg/kg/injection, schedule: Q01DX005 (ip), vehicle: Klucel (hydroxypropylcellulose) (HPC)) 100 % of control.

On to `CC(=O)NC1C(NC(=S)NCC(=O)c2ccc(C)cc2)OC(COC(C)=O)C(OC(C)=O)C1OC(C)=O` (configuration not stated), for which the T/C runs as follows: under setting [8], 94 % of control; under setting [9], 94 % of control; under setting [10], 91 % of control.

As to `CCCCCCC(=O)/C=C/c1cc(OC)ccc1OC`, the T/C by setting is: (dose: 12.5 mg/kg/injection, schedule: Q01DX009 (ip), vehicle: saline with Tween-80) 100 % of control; under setting [4], 99 % of control; under setting [5], 99 % of control; under setting [6], 99 % of control and 96 % of control; under setting [7], 97 % of control.

For the compound `CCN(CCC#N)C(=O)c1cccc([N+](=O)[O-])c1`, the T/C is, setting by setting: under setting [11], 102 % of control; (dose: 120.0 mg/kg/injection, schedule: Q01DX005 (ip), vehicle: Klucel (hydroxypropylcellulose) (HPC)) 94 % of control.

As for `O=C1CN(CO)C(=O)N1CO`, the T/C by setting is: (dose: 25.0 mg/kg/injection, schedule: Q01DX005 (ip), vehicle: Klucel (hydroxypropylcellulose) (HPC)) 114 % of control; under setting [12], 116 % of control and 117 % of control; under setting [13], 116 % of control.

Consider `CCC[CH2][Sn]1([CH2]CCC)[O]C(=O)CCSCCC(=O)[O]1`, for which the T/C (dose: 1.56 mg/kg/injection, schedule: Q01DX005 (ip), vehicle: saline with Tween-80) was 100 % of control and 106 % of control; the T/C (dose: 3.12 mg/kg/injection, schedule: Q01DX005 (ip), vehicle: saline with Tween-80) was 109 % of control and 115 % of control and 121 % of control; the T/C (dose: 6.25 mg/kg/injection, schedule: Q01DX005 (ip), vehicle: saline with Tween-80) is 107 % of control.
